Each structure is given as a SMILES string. ≈ marks a conversion by molar mass, not a printed value. Like-named read-outs stand apart in the source and are kept apart here.

This data set is described as follows: Solubility in various solvents (sonicated at 25° C., centrifuged, filtered, HPLC). It counts as physicochemical. To be noted: thermodynamic from solid, read-out: Solubility (mg/mL at 25° C.). As to the method:
The solubility of compound 141 was evaluated in various solvents. In the evaluation, a compound 141 sample was place into a 1.5 mL vial, 1 mL of the solvent was added, and the mixture was sonicated at 25° C. for 5 minutes. The mixture was then centrifuged, the upper supernatant was filtered through a microfilter, a filtrate aliquot was taken, diluted with acetonitrile, filtered, and injected into an HPLC column. The results are summarized in Example 8 Table 4 below where the purity of compound 141 was greater than 98 area % by HPLC.
The solubility of compound 180 was evaluated in various solvents. In the evaluation, a compound 180 sample was placed into a 1.5 mL vial, 1 mL of the solvent was added, and the mixture was sonicated at 25° C. for 5 minutes. The mixture was then centrifuged, the upper supernatant was filtered through a microfilter, a filtrate aliquot was taken, diluted with acetonitrile, filtered, and injected into an HPLC column. The results are summarized in Example 9 Table 4 below where the purity of compound 180 was greater than 98 area % by HPLC.

Setting [1] is: organic solvent or mixture, solvent Acetone.
Setting [2] is: organic solvent or mixture, solvent Acetonitrile.
Where [3] appears, read: organic solvent or mixture, solvent Dichloromethane.
The mark [4] stands for this setting: organic solvent or mixture, solvent Dimethylformamide.
Where [5] appears, read: organic solvent or mixture, solvent Ethanol.
[6] abbreviates: organic solvent or mixture, solvent Ethyl acetate.
Where [7] appears, read: organic solvent or mixture, solvent Heptane.
[8] abbreviates: organic solvent or mixture, solvent Isopropanol.
Setting [9] is: organic solvent or mixture, solvent Methanol.
Setting [10] is: organic solvent or mixture, solvent Methyl tetrahydrofuran.
[11] abbreviates: organic solvent or mixture, solvent Petroleum ether.
Setting [12] is: organic solvent or mixture, solvent Tetrahydrofuran.
The mark [13] stands for this setting: organic solvent or mixture, solvent Toluene.
Setting [14] is: organic solvent or mixture, solvent tert-Butyl methyl ether.

For `C[C@H]1CN(C2COC2)CCN1c1ccc(N)nc1` [Compound 141], the solubility at 5 min is 154 mg/mL (≈ 619 mM) under setting [1]; 97.7 mg/mL (≈ 393 mM) under setting [2]; 269 mg/mL (≈ 1080 mM) under setting [3]; 200 mg/mL (≈ 803 mM) under setting [4]; 154 mg/mL (≈ 618 mM) under setting [5]; 82.3 mg/mL (≈ 331 mM) under setting [6]. Besides, the solubility at 5 min worked out at 0.32 mg/mL (≈ 1.29 mM) under setting [7]; 222 mg/mL (≈ 895 mM) under setting [8]; 221 mg/mL (≈ 892 mM) under setting [9]; 83 mg/mL (≈ 334 mM) under setting [10]; 0.26 mg/mL (≈ 1.05 mM) under setting [11]; 175 mg/mL (≈ 705 mM) under setting [12]. Besides, the solubility at 5 min was determined as 20.6 mg/mL (≈ 83 mM) under setting [13], 7.39 mg/mL (≈ 29.8 mM) under setting [14] and 30.7 mg/mL (≈ 124 mM) (solvent Water).

For the molecule `C[C@H]1CN(C2COC2)CCN1c1ccc(Nc2cc(Br)cn(C)c2=O)nc1` [Compound 180], the solubility at 5 min turned out to be 3.73 mg/mL (≈ 8.59 mM) under setting [1]; 2.3 mg/mL (≈ 5.3 mM) under setting [2]; 50.6 mg/mL (≈ 116 mM) under setting [3]; 20.8 mg/mL (≈ 47.9 mM) under setting [4]; 44.7 mg/mL (≈ 103 mM) (organic solvent or mixture, solvent Dioxane); 1.52 mg/mL (≈ 3.5 mM) under setting [5]. The solubility at 5 min under setting [6] is 4.53 mg/mL (≈ 10.4 mM); the solubility at 5 min under setting [7] is 0.03 mg/mL (≈ 0.0691 mM); the solubility at 5 min under setting [8] came out at 2.65 mg/mL (≈ 6.1 mM); the solubility at 5 min under setting [9] came out at 1.35 mg/mL (≈ 3.11 mM); the solubility at 5 min under setting [10] came to 7.19 mg/mL (≈ 16.6 mM); the solubility at 5 min under setting [11] amounted to 0.03 mg/mL (≈ 0.0691 mM). Moreover, the solubility at 5 min is, setting by setting: under setting [12], 24 mg/mL (≈ 55.3 mM); under setting [13], 9.81 mg/mL (≈ 22.6 mM); under setting [14], 1.25 mg/mL (≈ 2.88 mM); (solvent Water) 0.52 mg/mL (≈ 1.2 mM).

For the origin of these results see patent publication US10882864B2, “Process for preparing BTK inhibitors” (Genentech, Inc., priority 2016, dated 2021).
